We go through 1 compound from article PMC2729922, “Pharmacological Targeting of Native CatSper Channels Reveals a Required Role in Maintenance of Sperm Hyperactivation” (PLoS ONE, 2009).

pIC50: −log10 of the molar value.

This experiment has as its target T1, CatSper channel (CatSper1) (Mus musculus, UniProt A2ARP9+Q80W99+Q8BVN3+Q91ZR5).
T1 construct: native channel in mouse sperm; with CatSper2, CatSper3, CatSper4
In words: whole-sperm patch clamp of native CatSper currents; also SBFI and fura-2 photometry (abstract IC50 […] by optical assay). The format is cell-based. On the technique in general: In patch-clamp work, channel activity is measured electrically.

T1 sequence (Q91ZR5 whole entry): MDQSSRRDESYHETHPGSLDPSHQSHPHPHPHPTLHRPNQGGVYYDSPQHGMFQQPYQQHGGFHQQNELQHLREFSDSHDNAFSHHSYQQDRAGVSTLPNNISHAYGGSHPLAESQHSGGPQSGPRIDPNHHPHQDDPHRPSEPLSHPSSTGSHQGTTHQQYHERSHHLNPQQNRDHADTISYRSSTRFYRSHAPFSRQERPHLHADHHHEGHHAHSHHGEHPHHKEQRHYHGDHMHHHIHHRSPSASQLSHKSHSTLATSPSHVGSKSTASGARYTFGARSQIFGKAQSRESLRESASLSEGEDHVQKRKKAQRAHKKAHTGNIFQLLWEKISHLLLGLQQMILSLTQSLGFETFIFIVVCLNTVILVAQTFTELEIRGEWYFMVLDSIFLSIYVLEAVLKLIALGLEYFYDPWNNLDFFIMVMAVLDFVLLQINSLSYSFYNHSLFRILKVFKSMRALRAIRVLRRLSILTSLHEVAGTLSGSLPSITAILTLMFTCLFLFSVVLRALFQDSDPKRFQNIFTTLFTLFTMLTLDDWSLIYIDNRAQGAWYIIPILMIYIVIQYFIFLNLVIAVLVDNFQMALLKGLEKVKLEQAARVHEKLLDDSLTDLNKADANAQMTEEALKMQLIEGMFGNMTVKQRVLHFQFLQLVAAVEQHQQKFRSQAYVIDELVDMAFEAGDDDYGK
T1 sequence (A2ARP9 whole entry): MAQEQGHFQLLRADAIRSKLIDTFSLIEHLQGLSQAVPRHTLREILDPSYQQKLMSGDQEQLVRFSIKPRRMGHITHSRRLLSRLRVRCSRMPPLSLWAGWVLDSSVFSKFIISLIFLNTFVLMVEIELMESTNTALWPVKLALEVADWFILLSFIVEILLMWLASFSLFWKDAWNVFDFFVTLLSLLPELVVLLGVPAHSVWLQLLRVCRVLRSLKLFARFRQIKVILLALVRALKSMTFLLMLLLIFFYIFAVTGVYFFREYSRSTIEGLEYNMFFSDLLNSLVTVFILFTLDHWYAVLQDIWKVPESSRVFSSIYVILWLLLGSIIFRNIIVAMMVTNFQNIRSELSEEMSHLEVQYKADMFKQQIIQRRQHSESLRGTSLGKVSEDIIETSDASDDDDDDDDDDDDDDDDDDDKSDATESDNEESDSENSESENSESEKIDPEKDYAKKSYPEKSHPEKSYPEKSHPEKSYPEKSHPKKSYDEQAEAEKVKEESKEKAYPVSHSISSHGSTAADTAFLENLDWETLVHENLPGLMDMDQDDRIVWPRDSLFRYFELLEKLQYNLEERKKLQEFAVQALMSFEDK
T1 sequence (Q80W99 whole entry): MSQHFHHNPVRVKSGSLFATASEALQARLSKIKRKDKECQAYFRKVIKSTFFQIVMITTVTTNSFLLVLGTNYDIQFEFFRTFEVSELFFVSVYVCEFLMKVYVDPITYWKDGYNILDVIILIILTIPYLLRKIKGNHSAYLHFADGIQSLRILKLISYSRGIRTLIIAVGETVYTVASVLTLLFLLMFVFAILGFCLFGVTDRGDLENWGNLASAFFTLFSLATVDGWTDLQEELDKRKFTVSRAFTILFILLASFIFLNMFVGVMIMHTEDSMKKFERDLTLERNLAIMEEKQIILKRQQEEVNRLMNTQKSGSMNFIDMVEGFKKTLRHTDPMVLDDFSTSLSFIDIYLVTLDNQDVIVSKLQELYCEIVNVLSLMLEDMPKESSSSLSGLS
T1 sequence (Q8BVN3 whole entry): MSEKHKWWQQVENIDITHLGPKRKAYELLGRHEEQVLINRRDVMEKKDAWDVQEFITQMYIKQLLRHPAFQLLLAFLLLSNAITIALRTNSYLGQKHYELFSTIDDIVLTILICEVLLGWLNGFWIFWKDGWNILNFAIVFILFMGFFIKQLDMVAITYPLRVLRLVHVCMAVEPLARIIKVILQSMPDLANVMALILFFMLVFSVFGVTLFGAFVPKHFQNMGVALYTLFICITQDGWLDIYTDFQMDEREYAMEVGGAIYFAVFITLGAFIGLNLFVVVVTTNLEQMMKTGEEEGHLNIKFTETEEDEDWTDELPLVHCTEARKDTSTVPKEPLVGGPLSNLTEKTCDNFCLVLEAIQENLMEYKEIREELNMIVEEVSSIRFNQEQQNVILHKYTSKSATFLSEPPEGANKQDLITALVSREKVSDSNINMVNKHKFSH

As for `O=C(c1cccs1)c1no[n+]([O-])c1C(=O)c1cccs1` [HC-056456, 3,4-bis(2-thienylcarbonyl)-1,2,5-oxadiazole-2-ium-2-olate], the pIC50 (usually the negative decadic logarithm of the IC50, by convention in mol/L) is around 4.82.
